This note sets out measurements from patent US20260184708A1, “PYRIDAZINONES AND METHODS OF USE THEREOF” (GFB (ABC), LLC, priority 2017, published 2026).

The target of one assay is T1, TRPC5 (Homo sapiens, UniProt Q9UL62).
T1 construct: expressed in transfected cells; host or cells: HEK 293
T1 sequence (Q9UL62 1-973): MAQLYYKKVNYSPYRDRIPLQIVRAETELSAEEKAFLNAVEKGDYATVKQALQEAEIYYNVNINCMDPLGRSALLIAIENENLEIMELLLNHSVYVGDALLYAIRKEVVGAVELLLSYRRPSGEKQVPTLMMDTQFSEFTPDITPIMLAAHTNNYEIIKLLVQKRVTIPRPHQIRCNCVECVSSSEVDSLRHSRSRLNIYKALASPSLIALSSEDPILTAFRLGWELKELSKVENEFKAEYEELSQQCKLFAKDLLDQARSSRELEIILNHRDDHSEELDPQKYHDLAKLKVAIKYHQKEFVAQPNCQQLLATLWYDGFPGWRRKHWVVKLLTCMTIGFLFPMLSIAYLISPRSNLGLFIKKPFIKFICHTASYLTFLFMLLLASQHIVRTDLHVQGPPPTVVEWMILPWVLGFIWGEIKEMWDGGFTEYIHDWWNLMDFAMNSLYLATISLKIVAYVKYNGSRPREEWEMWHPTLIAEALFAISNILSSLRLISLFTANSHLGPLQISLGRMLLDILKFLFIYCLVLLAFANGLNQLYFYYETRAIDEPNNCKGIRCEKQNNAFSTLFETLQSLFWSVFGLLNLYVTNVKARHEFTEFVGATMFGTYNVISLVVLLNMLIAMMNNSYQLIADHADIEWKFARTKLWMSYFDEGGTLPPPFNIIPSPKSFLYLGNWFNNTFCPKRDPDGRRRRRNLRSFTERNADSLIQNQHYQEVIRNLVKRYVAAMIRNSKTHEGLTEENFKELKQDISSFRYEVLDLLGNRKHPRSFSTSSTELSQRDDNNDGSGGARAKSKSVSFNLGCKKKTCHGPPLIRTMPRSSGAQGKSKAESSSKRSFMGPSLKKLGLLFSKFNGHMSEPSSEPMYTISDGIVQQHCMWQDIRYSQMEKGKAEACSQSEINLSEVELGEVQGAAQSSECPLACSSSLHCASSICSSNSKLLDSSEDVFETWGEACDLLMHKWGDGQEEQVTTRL
Briefly: TRPC5 Fluorescence Assay - FLIPR format (HEK-TREx hTRPC5, Riluzole stimulation). In kind it is cell-based. The note with it: Table 9, read-out: hTRPCS-FLIPR IC50. The method in brief: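 Tetracycline-induced HEK-TREx hTRPC5 cells loaded with Fluo-4 AM in EBSS were preincubated 5 min with compound (final 30 μM to 0.0001 μM, 0.3% DMSO), then stimulated with 30 μM Riluzole. Peak fluorescence over 5 min gave % inhibition, normalised to a 1 μM reference inhibitor.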
As usually defined, the IC50 is the point on the concentration scale where inhibition reaches its midpoint. `C[C@@H](c1ccccc1C(F)(F)F)N1CCN(c2cn[nH]c(=O)c2Cl)CC1=O` [drawing 1044]: the IC50 was in the range of 0.01 to 1000 nM.

For `C[C@H](c1ccc(F)cc1C(F)(F)F)N1C[C@@H](C)N(c2cn[nH]c(=O)c2Cl)CC1=O` [drawing 1048], the IC50 lay in the range of 0.01 to 1000 nM.

As to `C[C@@H](c1ccc(F)cc1C(F)(F)F)N1CCN(c2cn[nH]c(=O)c2Cl)CC1=O` [drawing 1049], the half-inhibitory concentration (IC50) lay in the range of 0.01 to 1000 nM.

Still in this assay, the particulars now being: Table 10, read-out: TRPCS-FLIPR IC50.
For the compound `CCS(=O)(=O)c1nc2c(n1Cc1ccccc1C(F)(F)F)CCN(c1cn[nH]c(=O)c1Cl)C2` [drawing 1079], the 50% inhibitory concentration (IC50) was in the range of 0.01 to 1000 nM.

On to `C[C@@H]1Cc2c(nnn2[C@@H](C)c2ccc(F)cc2C(F)(F)F)CN1c1cn[nH]c(=O)c1Cl` [drawing 1085], for which the concentration for half-maximal inhibition (IC50) lay in the range of 0.01 to 1000 nM.

In the case of `C[C@@H]1Cc2c(c(C(N)=O)nn2Cc2ccccc2C(F)(F)F)CN1c1cn[nH]c(=O)c1Cl` [drawing 1118], the IC50 lay within 0.01 to 1000 nM.

As to `C[C@@H](c1ccccc1C(F)F)n1nnc2c1CCN(c1cn[nH]c(=O)c1Cl)C2` [drawing 1106], the IC50 is 0.01 to 1000 nM.

On to `COCc1ncccc1Cn1cnc2c1CCN(c1cn[nH]c(=O)c1Cl)C2` [drawing 1065], for which the concentration for half-maximal inhibition (IC50) fell in the range of 0.01 to 1000 nM.

Take `O=c1[nH]ncc(N2CCc3c(c(=O)[nH]n3Cc3ccccc3C(F)(F)F)C2)c1Cl` [drawing 1081]: the half-inhibitory concentration (IC50) is 0.01 to 1000 nM.

Take `O=c1[nH]ncc(N2CCc3c(ncn3Cc3ccccc3Cl)C2)c1Cl` [drawing 1139]: the IC50 lay in the range of 0.01 to 1000 nM.

For `CS(=O)(=O)c1nc2c(n1Cc1ccccc1C(F)(F)F)CCN(c1cn[nH]c(=O)c1Cl)C2` [drawing 1142], the IC50 is 0.01 to 1000 nM.

Turning to `C[C@H](c1ccc(F)cc1C(F)(F)F)n1nnc2c1CCN(c1cn[nH]c(=O)c1Cl)[C@H]2C` [drawing 1092], the IC50 lay within 0.01 to 1000 nM.

Turning to `COC[C@H](c1ccccc1C(F)(F)F)n1cnc2c1CCN(c1cn[nH]c(=O)c1Cl)C2` [drawing 1120], the concentration for half-maximal inhibition (IC50) fell in the range of 0.01 to 1000 nM.

As for `CC(c1ccc(F)cc1C(F)F)n1nc(C(N)=O)c2c1CCN(c1cn[nH]c(=O)c1Cl)C2` (centres unmarked) [drawing 1114], the half-maximal inhibitory concentration (IC50) is 0.01 to 1000 nM.

Turning to `C[C@H](c1ccccc1C(F)(F)F)n1nnc2c1CCN(c1cn[nH]c(=O)c1Cl)[C@H]2C` [drawing 1078], the IC50 lay in the range of 0.01 to 1000 nM.

As for `C[C@@H]1Cc2c(nnn2[C@@H](C)c2ccccc2C(F)(F)F)CN1c1cn[nH]c(=O)c1Cl` [drawing 1071], the IC50 was 0.01 to 1000 nM.

`CN(c1ncc2c(n1)CN(c1cn[nH]c(=O)c1Cl)C2)c1ccc(F)cc1Cl` [drawing 1144]: the IC50 was 0.01 to 1000 nM.

On to `O=c1[nH]ncc(N2CCc3c(nnn3Cc3ccc(F)cc3CC(F)(F)F)C2)c1Cl` [drawing 1131], for which the 50% inhibitory concentration (IC50) lay in the range of 0.01 to 1000 nM.

As for `CCc1ncccc1N(C)c1ncc2c(n1)CN(c1cn[nH]c(=O)c1Cl)C2` [drawing 1154], the IC50 is 0.01 to 1000 nM.

In the case of `O=c1[nH]ncc(N2CCc3c(ncn3Cc3ccc(F)cc3Cl)C2)c1Cl` [drawing 1136], the IC50 was 0.01 to 1000 nM.

With `CNC(=O)c1nn(Cc2ccc(F)cc2C(F)F)c2c1CN(c1cn[nH]c(=O)c1Cl)CC2` [drawing 1117], the IC50 lay in the range of 0.01 to 1000 nM.

Take `C[C@H](c1ccccc1C(F)(F)F)n1nc(C(N)=O)c2c1CCN(c1cn[nH]c(=O)c1Cl)C2` [drawing 1123]: the half-inhibitory concentration (IC50) lay in the range of 0.01 to 1000 nM.

For the compound `COCc1ccccc1Cn1cnc2c1CCN(c1cn[nH]c(=O)c1Cl)C2` [drawing 1053], the IC50 lay in the range of 0.01 to 1000 nM.

As to `CNC(=O)c1nn([C@H](C)c2ccccc2C(F)F)c2c1CN(c1cn[nH]c(=O)c1Cl)CC2` [drawing 1113], the IC50 lay within 0.01 to 1000 nM.

With `[2H]c1nc2c(n1Cc1ccccc1C(F)(F)F)CCN(c1cn[nH]c(=O)c1Cl)C2`, the IC50 was 0.01 to 1000 nM.

Consider `C[C@@H](c1cccnc1CC(F)F)n1nnc2c1CCN(c1cn[nH]c(=O)c1Cl)C2` [drawing 1125], for which the IC50 is 0.01 to 1000 nM.

In the case of `CCN(c1ncc2c(n1)CN(c1cn[nH]c(=O)c1Cl)C2)c1ccccc1Cl` [drawing 1148], the IC50 was 0.01 to 1000 nM.

On to `C[C@H](c1ccccc1C(F)F)n1nnc2c1CCN(c1cn[nH]c(=O)c1Cl)C2` [drawing 1100], for which the IC50 is 0.01 to 1000 nM.

Consider `C[C@@H](c1ccc(F)cc1C(F)F)n1nnc2c1CCN(c1cn[nH]c(=O)c1Cl)C2` [drawing 1107], for which the IC50 fell in the range of 0.01 to 1000 nM.

For the compound `C[C@@H](c1ccccc1Cl)n1nnc2c1CCN(c1cn[nH]c(=O)c1Cl)C2` [drawing 1140], the IC50 lay in the range of 0.01 to 1000 nM.

Take `O=c1[nH]ncc(N2CCc3c(Cc4ccc(F)cc4C(F)(F)F)n[nH]c3C2)c1Cl` [drawing 1153]: the 50% inhibitory concentration (IC50) was in the range of 0.01 to 1000 nM.

For `C[C@H](c1ccc(F)cc1C(F)F)n1nc(C(N)=O)c2c1CCN(c1cn[nH]c(=O)c1Cl)C2`, the concentration for half-maximal inhibition (IC50) fell in the range of 0.01 to 1000 nM.

In the case of `CNC(=O)c1nc2c(n1Cc1ccccc1C(F)(F)F)CCN(c1cn[nH]c(=O)c1Cl)C2` [drawing 1134], the concentration for half-maximal inhibition (IC50) fell in the range of 0.01 to 1000 nM.

Turning to `NC(=O)c1nc2c(n1Cc1ccccc1C(F)(F)F)CCN(c1cn[nH]c(=O)c1Cl)C2` [drawing 1135], the IC50 lay in the range of 0.01 to 1000 nM.

For `C[C@H](c1ccccc1Cl)n1nnc2c1CCN(c1cn[nH]c(=O)c1Cl)C2` [drawing 1133], the IC50 is 0.01 to 1000 nM.
